Assay results as given in patent US10028961B2, “Therapeutically active compounds and their methods of use” (AGIOS PHARMACEUTICALS, INC., priority 2013, dated 2018).

How the values were obtained:
IDH2 R140Q = IDH2 R140Q (Homo sapiens (Human), UniProt P48735, R140Q); test: In vitro assay for IDH2m R140Q inhibitors, cofactor depletion assay; type: biochemical; settings: IDH2 R140Q enzyme
In short: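 Remaining cofactor measured fluorimetrically: diaphorase/resazurin Stop Mix […], halting the reaction. Before that, mutant enzyme and compound sat 1 h at RT, then substrate mix (4 μM NADPH, 1.6 mM α-KG) was added for 16 h at RT.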

HT1080 cells = test: Cellular assay for IDH1m R132C inhibitors, 2-HG by LC-MS in HT1080 cells; type: cell-based; settings: Homo sapiens, HT-1080
Description: The following describes the experimental procedures that can be used to obtain data on column 5 of Table 4.
Cells (HT1080 or U87MG) are grown in T125 flasks in DMEM containing 10% FBS, 1× penicillin/streptomycin and 500 ug/mL G418 (present in U87MG cells only). They are harvested by trypsin and seeded into 96 well white bottom plates at a density of 5000 cell/well in 100 ul/well in DMEM with 10% FBS. No cells are placed in columns 1 and 12. Cells are incubated overnight at 37° C. in 5% CO2. The next day test compounds are made up at 2× the final concentration and 100 ul are added to each cell well. The final concentration of DMSO is 0.2% and the DMSO control wells are plated in row G. The plates are then placed in the incubator for 48 hours. At 48 hours, 100 ul of media is removed from each well and analyzed by LC-MS for 2-HG concentrations. The cell plate is placed back in the incubator for another 24 hours. At 72 hours post compound addition, 10 mL/plate of Promega Cell Titer Glo reagent is thawed and mixed. The cell plate is removed from the incubator and allowed to equilibrate to room temperature. Then 100 ul of Promega Cell Titer Glo reagent is added to each well of media. The cell plate is then placed on an orbital shaker for 10 minutes and then allowed to sit at room temperature for 20 minutes. The plate is then read for luminescence with an integration time of 500 ms.
HT1080 cells are maintained in RPMI containing 10% FBS, 1× penicillin/streptomycin. […] The next day compounds are prepared in 100% DMSO and then diluted in media for a final concentration of 0.2% DMSO. Media is removed from the cell plates and 200 μL of the compound dilutions are added to each well. […] The cell plates are then allowed to incubate another 24 hours.

[1] = tested on: U87MG pLVX-IDH2 R140Q-neo cells; test: U87MG pLVX-IDH2 R140Q-neo cell based assay, 2-HG by LC-MS; settings: Homo sapiens, U-87 MG
[2] = target: IDH1 wt/IDH1 R132H heterodimer (Homo sapiens (Human), UniProt O75874, R132H); test: In vitro assay for IDH1m R132H inhibitors, IDH1 wt/IDH1 R132H heterodimer, NADPH depletion (diaphorase/resazurin); type: biochemical; settings: IDH1 wt/R132H heterodimer, NADPH/NADP, not saturated; read-out: IDH1 wt/R132H NADPH/NADP IC50 not saturated
In short: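 Purified IDH1wt-his/IDH1R132H-flag heterodimer (sf9 co-expression) pre-incubated 1 hr at room temperature with compound and NADPH before α-KG addition. Remaining NADPH read by diaphorase/resazurin conversion to fluorescent resorufin, 5 min at 25° C. Compounds diluted 1:50 from DMSO; IC50 determined.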

[3] = target: IDH1-R132H homodimer enzyme (Homo sapiens (Human), UniProt O75874, R132H); test: In vitro assay IDH1-R132H homodimer, NADPH depletion assay with NADPH/NADP preincubation; type: biochemical; settings: 5 μM NADPH and 37.5 μM NADP
In short: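 Conversion of alpha-ketoglutarate to 2-hydroxyglutarate tracked by NADPH depletion. Reaction started with 5 mM alpha-ketoglutarate plus NADPH substrate mix (50 μl total), 60 min at room temperature. Leftover NADPH quantified via diaphorase/resazurin fluorescence.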

[4] = tested on: Neurosphere cells (TS603); test: Cellular assay for IDH1m R132H inhibitors, 2-HG by LC-MS in neurosphere cells (TS603); type: cell-based; settings: 2-HG in media at 48 hours
In short: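 TS603 neurosphere cells in NeuroCult medium were dosed with compound (0.25% DMSO final) at 37 C, 5% CO2. After 48 hours, medium 2-HG was measured by LC-MS. At 72 hours, viability was read by CellTiter-Glo luminescence.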

Chain of IDH1 wt/IDH1 R132H heterodimer (O75874 whole entry R132H): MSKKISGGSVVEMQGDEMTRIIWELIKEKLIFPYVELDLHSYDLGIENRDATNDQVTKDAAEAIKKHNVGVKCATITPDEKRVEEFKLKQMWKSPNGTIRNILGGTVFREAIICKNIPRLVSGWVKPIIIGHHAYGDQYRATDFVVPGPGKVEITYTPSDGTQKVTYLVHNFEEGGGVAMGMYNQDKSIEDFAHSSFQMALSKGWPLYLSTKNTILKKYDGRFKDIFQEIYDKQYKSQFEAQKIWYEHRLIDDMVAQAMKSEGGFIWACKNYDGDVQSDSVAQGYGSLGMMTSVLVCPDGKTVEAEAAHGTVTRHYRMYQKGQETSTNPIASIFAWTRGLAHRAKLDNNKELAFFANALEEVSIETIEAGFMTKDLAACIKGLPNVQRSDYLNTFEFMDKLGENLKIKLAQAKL
Chain of IDH1 wt/IDH1 R132H heterodimer (O75874 whole entry, stated change not applied): as the sequence (O75874 whole entry R132H) above, with H132R counted along it
Chain of IDH1-R132H homodimer enzyme (O75874 whole entry R132H): as the sequence (O75874 whole entry R132H) above
Chain of IDH2 R140Q (P48735 40-452 R140Q): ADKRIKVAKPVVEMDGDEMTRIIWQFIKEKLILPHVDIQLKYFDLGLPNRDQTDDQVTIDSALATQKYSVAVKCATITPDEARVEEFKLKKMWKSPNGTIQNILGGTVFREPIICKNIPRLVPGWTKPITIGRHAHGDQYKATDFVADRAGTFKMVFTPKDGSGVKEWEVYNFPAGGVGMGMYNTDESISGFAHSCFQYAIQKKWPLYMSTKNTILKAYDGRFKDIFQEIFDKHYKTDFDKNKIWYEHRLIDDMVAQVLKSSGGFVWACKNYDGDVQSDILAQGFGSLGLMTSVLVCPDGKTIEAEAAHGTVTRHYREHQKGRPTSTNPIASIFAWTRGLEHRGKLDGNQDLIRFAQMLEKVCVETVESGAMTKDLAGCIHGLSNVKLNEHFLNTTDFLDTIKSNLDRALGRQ

| SMILES | IC50 (IDH2 R140Q) [nM] | IC50 (HT1080 cells) [nM] | IC50 [1] [nM] | IC50 [2] [nM] | IC50 [3] [nM] | IC50 [4] [nM] |
| --- | --- | --- | --- | --- | --- | --- |
| CC[C@H](Nc1nc(N[C@@H](CC)C(F)(F)F)nc(-c2cccc(Cl)n2)n1)C(F)(F)F [Compound 180] | 50 to 100 | < 50 | 100 to 1000 | < 50 | < 50 | < 50 |
| FC1(F)CCC(Nc2nc(NC3CCC(F)(F)C3)nc(-c3ccnc(C(F)(F)F)n3)n2)C1 (stereo not drawn) [Compound 194] | 50 to 100 | 50 to 100 | 50 to 100 | < 50 | 100 to 1000 | < 50 |
| Fc1cc(F)cc(Nc2nc(NC3CC(F)(F)C3)nc(-c3nc(F)ccc3F)n2)c1 [Compound 195] | < 50 | 100 to 1000 | < 50 | < 50 | 50 to 100 | < 50 |
| CC[C@H](Nc1nc(N[C@H](CC)C(F)(F)F)nc(-c2cccc(Cl)n2)n1)C(F)(F)F [Compound 196] | 50 to 100 | 50 to 100 | 100 to 1000 | < 50 | < 50 | < 50 |
| FC1(F)CC(Nc2nc(Nc3ccnc(C(F)(F)F)c3)nc(-n3ccc(C(F)(F)F)n3)n2)C1 [Compound 197] | < 50 | 100 to 1000 | < 50 | < 50 | 100 to 1000 | < 50 |
| FC(F)(F)c1cc(Nc2nc(NCC3CC3)nc(-c3cccc(Cl)n3)n2)ccn1 [Compound 200] | < 50 | > 1000 | < 50 | < 50 | 50 to 100 | < 50 |
| CC(Nc1nc(Nc2ccnc(C3(C#N)CC3)c2)nc(-n2ccc(C(F)(F)F)n2)n1)C(F)(F)F (stereo not drawn) [Compound 201] | < 50 | 50 to 100 | < 50 | < 50 | 50 to 100 | < 50 |
| FC1(F)CCC(Nc2nc(Nc3ccnc(-c4ccccc4)c3)nc(-c3cccc(C(F)(F)F)n3)n2)C1 (stereo not drawn) [Compound 202] | < 50 | 100 to 1000 | < 50 | < 50 | 100 to 1000 | < 50 |
| FC(F)c1csc(-c2nc(NC3CCC(F)(F)CC3)nc(NC3CCC(F)(F)CC3)n2)n1 [Compound 205] | < 50 | 50 to 100 | < 50 | < 50 | 100 to 1000 | < 50 |
| C[C@@H](Nc1nc(Nc2ccnc(C#N)c2)nc(-n2ccc(C(F)(F)F)n2)n1)C(F)(F)F [Compound 207] | < 50 | 100 to 1000 | < 50 | < 50 | 50 to 100 | < 50 |
| CC(F)(F)c1nc(-c2nc(NC3CC(F)(F)C3)nc(NC3CC(F)(F)C3)n2)cs1 [Compound 209] | < 50 | 100 to 1000 | < 50 | < 50 | 100 to 1000 | < 50 |
| N#Cc1cc(Nc2nc(NC3CC(F)(F)C3)nc(-n3ccc(C(F)(F)F)n3)n2)ccn1 [Compound 210] | < 50 | 100 to 1000 | < 50 | < 50 | 50 to 100 | < 50 |
| CC(F)(F)c1cccc(-c2nc(Nc3ccnc(C4(C#N)CC4)c3)nc(NC3CCC(F)(F)CC3)n2)n1 [Compound 211] | < 50 | 100 to 1000 | < 50 | < 50 | 100 to 1000 | < 50 |
| FC1(F)CCC(Nc2nc(NC3CCC(F)(F)CC3)nc(-c3cccc(Cl)n3)n2)CC1 [Compound 212] | < 50 | 50 to 100 | < 50 | < 50 | 100 to 1000 | < 50 |
| N#CC1(c2cc(Nc3nc(NCC(F)(F)F)nc(-c4cccc(Cl)n4)n3)ccn2)CC1 [Compound 215] | < 50 | 100 to 1000 | < 50 | < 50 | 50 to 100 | < 50 |
| FC1(F)CC(CNc2nc(NCC3CC(F)(F)C3)nc(-c3cccc(C(F)(F)F)n3)n2)C1 [Compound 216] | < 50 | 100 to 1000 | < 50 | < 50 | 100 to 1000 | < 50 |
| CC(Nc1nc(Nc2ccnc(-c3ccccc3)c2)nc(-c2cccc(C(F)(F)F)n2)n1)C(F)(F)F (stereo not drawn) [Compound 217] | < 50 | 100 to 1000 | < 50 | < 50 | 50 to 100 | < 50 |
| FC1(F)CCC(Nc2nc(Nc3ccnc(-c4ccccc4)c3)nc(-c3cccc(C(F)(F)F)n3)n2)CC1 [Compound 220] | 50 to 100 | 100 to 1000 | 50 to 100 | < 50 | 50 to 100 | < 50 |
| FC1(F)CC(CNc2nc(Nc3ccnc(C(F)(F)F)c3)nc(-c3cccc(C(F)(F)F)n3)n2)C1 [Compound 221] | < 50 | > 1000 | < 50 | < 50 | 100 to 1000 | < 50 |

Continued, values first:

| IC50 (IDH2 R140Q) [nM] | IC50 (HT1080 cells) [nM] | IC50 [1] [nM] | IC50 [2] [nM] | IC50 [3] [nM] | IC50 [4] [nM] | SMILES |
| --- | --- | --- | --- | --- | --- | --- |
| < 50 | 100 to 1000 | < 50 | < 50 | < 50 | < 50 | Fc1cc(F)cc(Nc2nc(NC3CCC(F)(F)C3)nc(-c3nc(C(F)(F)F)cs3)n2)c1 (stereo not drawn) [Compound 159] |
| < 50 | 100 to 1000 | < 50 | < 50 | 50 to 100 | < 50 | CC(F)(F)c1cc(Nc2nc(NC3CCC(F)(F)C3)nc(-c3cccc(C(F)(F)F)n3)n2)ccn1 (stereo not drawn) [Compound 163] |
| < 50 | 100 to 1000 | < 50 | < 50 | 50 to 100 | < 50 | Nc1ccc(F)c(-c2nc(Nc3cc(F)cc(F)c3)nc(NC3CCC(F)(F)CC3)n2)n1 [Compound 165] |
| < 50 | < 50 | < 50 | < 50 | < 50 | < 50 | N#CC1(c2cc(Nc3nc(NC4CC(F)(F)C4)nc(-n4ccc(C(F)(F)F)n4)n3)ccn2)CC1 [Compound 169] |
| < 50 | 100 to 1000 | < 50 | < 50 | 50 to 100 | < 50 | CC(Nc1nc(Nc2ccnc(C(F)(F)F)c2)nc(-c2cccc(C(F)(F)F)n2)n1)C(F)(F)F (stereo not drawn) [Compound 171] |
| < 50 | 100 to 1000 | < 50 | < 50 | 50 to 100 | < 50 | N#Cc1cc(F)cc(Nc2nc(NCC3CC3)nc(-c3cccc(C(F)(F)F)n3)n2)c1 [Compound 175] |
| < 50 | 100 to 1000 | < 50 | < 50 | < 50 | < 50 | N#Cc1cc(Nc2nc(NC3CCC(F)(F)C3)nc(-n3ccc(C(F)(F)F)n3)n2)ccn1 (stereo not drawn) [Compound 179] |
| < 50 | 50 to 100 | < 50 | < 50 | 100 to 1000 | < 50 | FC1(F)CCC(Nc2nc(NC3CCC(F)(F)CC3)nc(-c3nc(C(F)(F)F)cs3)n2)CC1 [Compound 183] |
| < 50 | 100 to 1000 | < 50 | < 50 | 100 to 1000 | < 50 | FC(F)c1cncc(-c2nc(NC3CCC(F)(F)CC3)nc(NC3CCC(F)(F)CC3)n2)n1 [Compound 186] |
